Experimental data: patent publication EP1614683B1, “Indazole compounds and pharmaceutical compositions for inhibiting protein kinases, and methods for their use” (priority 1999, dated 2001)
Read-outs that look alike come from different tables or passages of the source.

[1] = mouse, in vivo, po, 10 mg/kg, pH 2.3
[2] = mouse, in vivo, ip, 25 mg/kg, pH 2.3
[3] = mouse, in vivo, po, 50 mg/kg, 7 h, pH 2.3
[4] = mouse, in vivo, po, 50 mg/kg, pH 2.3
[5] = mouse, in vivo, ip, 25 mg/kg, 7 h, pH 2.3
[6] = mouse, in vivo, po, 25 mg/kg, pH 2.3
[7] = mouse, in vivo, po, 25 mg/kg, 7 h, pH 2.3
[8] = PO, 25 mg/kg, vehicle PEG400:H2O pH 2.3 30:70

Row | SMILES | AUCleast [2] | T1/2 [2] | AUCleast [4] | T1/2 [4] | AUCleast [6] | T1/2 [6] | other results
1 | Cc1cccc(C(=O)Nc2cccc(Oc3ccc4c(/C=C/c5ccccc5)n[nH]c4c3)c2)c1 [5 (b)] | – | – | – | – | – | – | AUCleast [1]: 61 ng·h/mL; T1/2 [1]: 3.1 h
2 | O=C(Nc1cccc(Cl)c1)c1ccccc1Sc1ccc2c(/C=C/c3ccccn3)n[nH]c2c1 [33 (d)] | 5080 ng·h/mL | 1.6 h | 4744 ng·h/mL | 0.9 h | – | – | Cmin (7 hr conc.) [3]: 8 ng/mL
3 | O=C(NC1CC1)c1ccccc1Sc1ccc2c(/C=C/c3ccccn3)n[nH]c2c1 [33 (e)] | 14323 ng·h/mL | 1.0 h | 13290 ng·h/mL | 0.7 h | – | – | –
4 | O=C(NCC(F)(F)F)c1ccccc1Sc1ccc2c(/C=C/c3ccccn3)n[nH]c2c1 [33 (f)] | 1887 ng·h/mL | 2.4 h | 1436 ng·h/mL | 0.7 h | – | – | Cmin (7 hr conc.) [5]: 6 ng/mL; Cmin (7 hr conc.) [3]: 3 ng/mL
5 | COc1cccc(CNC(=O)c2ccccc2Sc2ccc3c(/C=C/c4ccccn4)n[nH]c3c2)c1 [35 (aa)] | – | – | – | – | 4036 ng·h/mL | 2.1 h | –
6 | CC(C)NC(=O)c1ccccc1Sc1ccc2c(/C=C/c3ccccn3)n[nH]c2c1 [35 (b)] | 2840 ng·h/mL | 0.8 h | 4048 ng·h/mL | 0.8 h | – | – | –
7 | O=C(NC1CCC1)c1ccccc1Sc1ccc2c(/C=C/c3ccccn3)n[nH]c2c1 [35 (c)] | 9408 ng·h/mL | 3.2 h | 4744 ng·h/mL | 4.9 h | – | – | –
8 | C#CCNC(=O)c1ccccc1Sc1ccc2c(/C=C/c3ccccn3)n[nH]c2c1 [35 (cc)] | 2223 ng·h/mL | 1.4 h | 1718 ng·h/mL | 0.9 h | – | – | Cmin (7 hr conc.) [5]: 6 ng/mL; Cmin (7 hr conc.) [3]: 5 ng/mL
9 | CCONC(=O)c1ccccc1Sc1ccc2c(/C=C/c3ccccn3)n[nH]c2c1 [35 (dd)] | > 23046 ng·h/mL | 4.1 h | – | – | > 6521 ng·h/mL | 1.4 h | AUCleast (mouse, in vivo, po, 25 mg/kg): 1360 ng·h/mL; T1/2 (mouse, in vivo, po, 25 mg/kg): 2.0 h
10 | Cn1cccc1C(=O)NNC(=O)c1ccccc1Sc1ccc2c(/C=C/c3ccccn3)n[nH]c2c1 [35 (e)] | 2409 ng·h/mL | 1.8 h | 1503 ng·h/mL | 0.9 h | – | – | Cmin (7 hr conc.) [3]: 6 ng/mL
11 | C=C(C)CNC(=O)c1ccccc1Sc1ccc2c(/C=C/c3ccccn3)n[nH]c2c1 [35 (ee)] | 546 ng·h/mL | 1.5 h | – | – | 157 ng·h/mL | 14.6 h | Cmin (7 hr conc.) [5]: 2 ng/mL; Cmin (7 hr conc.) [7]: 9 ng/mL
12 | O=C(NCc1ccccc1F)c1ccccc1Sc1ccc2c(/C=C/c3ccccn3)n[nH]c2c1 [35 (f)] | 397 ng·h/mL | 3.8 h | 358 ng·h/mL | 3.6 h | – | – | –
13 | O=C(NCc1cccc(F)c1)c1ccccc1Sc1ccc2c(/C=C/c3ccccn3)n[nH]c2c1 [35 (ff)] | > 6301 ng·h/mL | – | – | – | Blq | – | Cmin (7 hr conc.) [6]: blq
14 | COc1ccc(CNC(=O)c2ccccc2Sc2ccc3c(/C=C/c4ccccn4)n[nH]c3c2)cc1 [35 (g)] | – | – | – | – | 231 ng·h/mL | 16.1 h | –
15 | Cc1ccc(CNC(=O)c2ccccc2Sc2ccc3c(/C=C/c4ccccn4)n[nH]c3c2)o1 [35 (h)] | 59 ng·h/mL | 1.5 h | 26 ng·h/mL | – | – | – | Cmin (7 hr conc.) [5]: 1 ng/mL; Cmin (7 hr conc.) [3]: 2 ng/mL
16 | O=C(NCCc1cccs1)c1ccccc1Sc1ccc2c(/C=C/c3ccccn3)n[nH]c2c1 [35 (hh)] | – | – | – | – | 292 ng·h/mL | 1.7 h | Cmin (7 hr conc.) [7]: 5 ng/mL
17 | C=CCONC(=O)c1ccccc1Sc1ccc2c(/C=C/c3ccccn3)n[nH]c2c1 [35 (j)] | 9531 ng·h/mL | 1.3 h | 1328 ng·h/mL | 4.5 h | – | – | Cmin (7 hr conc.) [3]: 5 ng/mL
18 | CC(C)ONC(=O)c1ccccc1Sc1ccc2c(/C=C/c3ccccn3)n[nH]c2c1 [35 (k)] | 2640 ng·h/mL | 1.4 h | 5529 ng·h/mL | 1.4 h | – | – | –
19 | O=C(NNC(=O)c1ccccc1Sc1ccc2c(/C=C/c3ccccn3)n[nH]c2c1)c1cccs1 [35 (m)] | 226 ng·h/mL | 4.0 h | – | – | 10 ng·h/mL | – | Cmin (7 hr conc.) (mouse, in vivo, po, 25 mg/kg, 420 min, pH 2.3): 0 ng/mL
20 | O=C(NCc1ccncc1)c1ccccc1Sc1ccc2c(/C=C/c3ccccn3)n[nH]c2c1 [35 (p)] | – | – | – | – | 1435 ng·h/mL | 1.3 h | Cmin (7 hr conc.) [7]: 5 ng/mL
21 | CONC(=O)c1ccccc1Sc1ccc2c(/C=C/c3ccccn3)n[nH]c2c1 [35 (r)] | – | – | – | – | 4261 ng·h/mL | 1.3 h | –
22 | CCCONC(=O)c1ccccc1Sc1ccc2c(/C=C/c3ccccn3)n[nH]c2c1 [35 (t)] | – | – | – | – | 3199 ng·h/mL | 1.1 h | –

Row | SMILES | AUCleast [2] | T1/2 [2] | AUCleast [4] | T1/2 [4] | AUCleast [6] | T1/2 [6] | other results
23 | O=C(NCC1CC1)c1ccccc1Sc1ccc2c(/C=C/c3ccccn3)n[nH]c2c1 [35 (v)] | 4865 ng·h/mL | 0.9 h | >2946 ng·h/mL | 1.0 h | – | – | –
24 | CCNC(=O)c1ccccc1Sc1ccc2c(/C=C/c3ccccn3)n[nH]c2c1 [35 (x)] | 951 ng·h/mL | 3.2 h | 3516 ng·h/mL | 0.9 h | – | – | –
25 | O=C(Nc1nccs1)c1ccccc1Sc1ccc2c(/C=C/c3ccccn3)n[nH]c2c1 [35 (y)] | 159 ng·h/mL | 1.2 h | 58 ng·h/mL | 1.2 h | – | – | Cmin (7 hr conc.) [5]: 2 ng/mL; Cmin (7 hr conc.) [3]: 1 ng/mL
26 | CCOCCNC(=O)c1ccccc1Sc1ccc2c(/C=C/c3ccccn3)n[nH]c2c1 [35 (z)] | 837 ng·h/mL | 1.8 h | 1001 ng·h/mL | 1.6 h | – | – | –
27 | Cn1ccnc1/C=N/NC(=O)c1ccccc1Sc1ccc2c(/C=C/c3ccccn3)n[nH]c2c1 [36 (a)] | – | – | – | – | 605 ng·h/mL | 1.5 h | –
28 | CC(C)ONC(=O)c1cccc(F)c1Sc1ccc2c(/C=C/c3ccccn3)n[nH]c2c1 [37 (c)] | – | – | – | – | 2419 ng·h/mL | 1.2 h | Cmin (7 hr conc.) [7]: 9 ng/mL
29 | CNC(=O)c1ccccc1Nc1ccc2c(/C=C/c3ccccn3)n[nH]c2c1 [39 (a)] | – | – | – | – | > 14848 ng·h/mL | 1.4 h | –
30 | C#CCNC(=O)c1ccccc1Nc1ccc2c(/C=C/c3ccccn3)n[nH]c2c1 [39 (b)] | – | – | – | – | > 30972 ng·h/mL | 11.8 h | –
31 | O=C(Nc1cccc(C(=O)c2ccc3c(/C=C/c4ccccn4)n[nH]c3c2)c1)c1ccncc1 [41 (b)] | > 5868 ng·h/mL | 4.7 h | 759 ng·h/mL | 1.1 h | – | – | Cmin (7 hr conc.) [3]: 6 ng/mL
32 | CC(C)=CC(=O)Nc1cccc(C(=O)c2ccc3c(/C=C/c4ccccn4)n[nH]c3c2)c1 [41 (dd)] | – | – | – | – | 654 ng·h/mL | 0.8 h | Cmin (7 hr conc.) [7]: 1 ng/mL
33 | C=CCn1nc(C)cc1C(=O)Nc1cc(C(=O)c2ccc3c(/C=C/c4ccccn4)n[nH]c3c2)ccc1C [41 (ff)] | – | – | – | – | 9176 ng·h/mL | 2.0 h | –
34 | Cc1cc(C(=O)Nc2cccc(C(=O)c3ccc4c(/C=C/c5ccccn5)n[nH]c4c3)c2)n[nH]1 [41 (g)] | 1925 ng·h/mL | 0.3 h | 508 ng·h/mL | 0.7 h | – | – | Cmin (7 hr conc.) (mouse, in vivo, ip, 25 mg/kg, 420 min, pH 2.3): 0 ng/mL; Cmin (7 hr conc.) [3]: 1 ng/mL
35 | Cc1cnccc1C(=O)Nc1cccc(C(=O)c2ccc3c(/C=C/c4ccccn4)n[nH]c3c2)c1 [41 (j)] | – | – | – | – | 1476 ng·h/mL | 1.3 h | –
36 | Cc1cc(C(=O)Nc2cc(C(=O)c3ccc4c(/C=C/c5ccccn5)n[nH]c4c3)ccc2C)n(C(C)C)n1 [41 (kk)] | – | – | – | – | 11612 ng·h/mL | 2.0 h | –
37 | Cc1cc(C(=O)Nc2cccc(C(=O)c3ccc4c(/C=C/c5ccccn5)n[nH]c4c3)c2)on1 [41 (m)] | 1864 ng·h/mL | 2.3 h | 9 ng·h/mL | – | – | – | –
38 | CCc1cc(C(=O)Nc2cccc(C(=O)c3ccc4c(/C=C/c5ccccn5)n[nH]c4c3)c2)n(C)n1 [41 (v)] | – | – | – | – | 10949 ng·h/mL | 4.4 h | –
39 | CC(C)COC(=O)Nc1cccc(C(=O)c2ccc3c(/C=C/c4ccccn4)n[nH]c3c2)c1 [41 (y)] | – | – | – | – | – | – | AUCleast [8]: Blq; Cmax [8]: Blq; Cmin (7 hr conc.) [8]: blq
40 | O=C(Nc1cccc(C(=O)c2ccc3c(/C=C/c4ccccn4)n[nH]c3c2)c1)c1ccccc1 [42 (a)] | 19899 ng·h/mL | 5.0 h | 8384 ng·h/mL | 2.0 h | – | – | –
41 | O=C(Nc1cccc(C(=O)c2ccc3c(-c4nc5ccccc5[nH]4)n[nH]c3c2)c1)c1ccccc1 [42 (b)] | 3207 ng·h/mL | 3.0 h | 4747 ng·h/mL | 3.0 h | – | – | –
42 | O=C(Nc1cccc(C(=O)c2ccc3c(-c4nc5cccnc5[nH]4)n[nH]c3c2)c1)c1ccccc1 [42 (d)] | 1774 ng·h/mL | 1.4 h | 46 ng·h/mL | – | – | – | –
43 | O=C(Nc1cccc(C(=O)c2ccc3c(/C=N/n4cccc4)n[nH]c3c2)c1)c1ccccc1 [45 (b)] | 11361 ng·h/mL | 2.0 h | 1636 ng·h/mL | 3.0 h | – | – | –
44 | CCn1nc(C)cc1C(=O)Nc1cc(Nc2ccc3c(/C=C/c4ccccn4)n[nH]c3c2)c(F)cc1C [48 (a)] | 27000 ng·h/mL | – | – | – | 26636 ng·h/mL | – | –
